{
  "source": "patent US8288444B2",
  "about": "(Codman & Shurtleff, Inc., priority 2008, dated 2012)",
  "key": {"[1]": {"conditions": "glycinate ester of the parent named in the row; cited from earlier work"}, "[2]": {"conditions": "ester prodrug vs parent estradiol"}, "[3]": {"conditions": "cited from earlier work"}, "[4]": {"conditions": "cited from earlier work", "remark": "listed apart in the source"}, "[5]": {"test": "carbamazepine peak brain tissue concentration by route (Barakat)"}, "PC 12 cells, βA (25-35)": {"system": "PC 12 cells, βA (25-35)", "test": "in vitro protection of PC 12 cells against beta amyloid (25-35) insult", "type": "cell-based", "conditions": "for potency as neuroprotectant against beta amyloid relative to curcumin: both peptides", "from_the_text": "Park, J. Nat. Prod., 65, 9 Sep."}, "amyloid beta oligomers": {"molecular_target": "amyloid beta oligomers (Homo sapiens, UniProt P05067)", "sequence (P05067 672-713 limits assumed)": "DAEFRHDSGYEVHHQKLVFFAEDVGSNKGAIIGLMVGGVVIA", "conditions": "cited from earlier work; for prevention of toxic beta amyloid oligomer formation in vitro: Yang"}, "[6]": {"system": "differentiated neuroblastoma cells", "conditions": "Yang 2005; cited from earlier work"}, "[7]": {"system": "Alzheimer's Transgenic mice", "conditions": "160 ppm in the diet; Lim 2001; cited from earlier work"}, "[8]": {"system": "middle aged female Sprague-Dawley rats", "conditions": "500 ppm dietary curcumin; Frautschy 2001; cited from earlier work"}, "UGT": {"system": "UGT", "conditions": "Caco-2 cells; cited from earlier work"}, "Pgp": {"system": "Pgp", "conditions": "freshly-plated and 72 hour-cultured hepatocytes; dose-dependent; cited from earlier work"}, "[9]": {"system": "antigen-stimulated spleen cytotoxic T-lymphocyte proliferation", "conditions": "oral pretreatment with curcumin before MPA administration; mice; cited from earlier work"}},
  "note": "Read-outs that look alike come from different tables or passages of the source.",
  "data": [
    {"compound": "17β-estradiol", "values": [
      {"measurement": "Half-life Of glycinate ester In plasma", "setting": "[1]", "value": "1 to 2", "unit": "min"}
    ]},
    {"compound": "CCN(CC)CCC(=O)Oc1ccc2c(c1)CC[C@@H]1[C@@H]2CC[C@]2(C)[C@@H](O)CC[C@@H]12.Cl", "note": "[3-DEAPE2HCl, 3-N,N-diethylamino propionyl ester hydrochloride]", "values": [
      {"measurement": "increase in water solubility", "setting": "[2]", "value": "> 1000", "unit": "fold"},
      {"measurement": "water solubility of estradiol modified with the moiety", "setting": "[3]; Al-Ghananeem", "value": "about 20 mg/ml"}
    ]},
    {"compound": "NC(=O)N1c2ccccc2C=Cc2ccccc21", "note": "[Carbamazepine]", "values": [
      {"measurement": "Carbamazepine Peak Brain Tissue", "setting": "[4]; Intranasal, 0.2 mg/kg", "value": 12, "unit": "µg/g"},
      {"measurement": "Carbamazepine Peak Brain Tissue", "setting": "[4]; Intravenous, 8.0 mg/kg", "value": 4, "unit": "µg/g"},
      {"measurement": "Carbamazepine Peak Brain Tissue", "setting": "[4]; Oral, 16 mg/kg", "value": 3, "unit": "µg/g"},
      {"measurement": "Carbamazepine Peak Brain Tissue, ~uM", "setting": "[5]; Intranasal, 0.2 mg/kg", "value": "~48", "unit": "µM"},
      {"measurement": "Carbamazepine Peak Brain Tissue, ~uM", "setting": "[5]; Intravenous, 8.0 mg/kg", "value": "~16", "unit": "µM"},
      {"measurement": "Carbamazepine Peak Brain Tissue, ~uM", "setting": "[5]; Oral, 16 mg/kg", "value": "~12", "unit": "µM"}
    ]},
    {"compound": "COc1cc(/C=C/C(=O)COC(=O)/C=C/c2ccc(O)c(OC)c2)ccc1O", "note": "[compound 31, 4″-(3′″-methoxy-4′″-hydroxyphenyl)-2″-oxo-3″-enebutanyl3-(3′-methoxy-4′ hydroxyphenyl) propenoate]", "values": [
      {"measurement": "potency as neuroprotectant against beta amyloid relative to curcumin", "setting": "PC 12 cells, βA (25-35); analysis of the Park data", "value": "~5", "unit": "fold"}
    ]},
    {"compound": "COc1cc(C=CC(=O)CC(=O)C=Cc2ccc(O)cc2)ccc1O", "note": "[compound 32, 1-(4-hydroxy-3-methoxyphenyl)-7-(4-hydroxyphenyl)-1,6-heptadiene-3,5-dione]", "values": [
      {"measurement": "potency as neuroprotectant against beta amyloid relative to curcumin", "setting": "PC 12 cells, βA (25-35); analysis of the Kim data", "value": "~1.5", "unit": "fold"}
    ]},
    {"compound": "O=C(C=Cc1ccc(O)cc1)CC(=O)C=Cc1ccc(O)cc1", "note": "[compound 33, 1,7-bis(4-hydroxyphenyl)-1,6-heptadiene-3,5-dione]", "values": [
      {"measurement": "potency relative to natural curcumin in surviving toxic insult by β amyloid", "setting": "PC 12 cells, βA (25-35)", "value": "about twice as potent"},
      {"measurement": "potency as neuroprotectant against beta amyloid relative to curcumin", "setting": "PC 12 cells, βA (25-35); analysis of the Kim data", "value": "~2", "unit": "fold"}
    ]},
    {"compound": "O=C(C=Cc1ccc(O)cc1)CC(=O)CCc1ccc(O)cc1", "note": "[compound 34, 1,7-bis(4-hydroxyphenyl)-1-heptene-3,5-dione]", "values": [
      {"measurement": "potency as neuroprotectant against beta amyloid relative to curcumin", "setting": "PC 12 cells, βA (25-35); analysis of the Park data", "value": "~10", "unit": "fold"}
    ]},
    {"compound": "COc1cc(/C=C/C(=O)CC(=O)/C=C/c2ccc(O)c(OC)c2)ccc1O", "note": "[curcumin, (E,E)-1,7-bis(4-hydroxy-3-methoxyphenyl)-1,6-heptadiene-3,5-dione]", "values": [
      {"measurement": "prevention of toxic beta amyloid oligomer formation in vitro", "setting": "amyloid beta oligomers; 0.25-4 uM curcumin", "value": "only minimally prevent"},
      {"measurement": "prevention of toxic beta amyloid oligomer formation in vitro", "setting": "amyloid beta oligomers; 16-64 uM curcumin", "value": "completely prevent"},
      {"measurement": "curcumin concentration that inhibits the in vitro formation of amyloid beta oligomers", "setting": "amyloid beta oligomers; in vitro, Yang 2005", "value": "0.1 to 1.0", "unit": "µM"},
      {"measurement": "curcumin concentration that blocks the in vitro toxicity of Aβ1-42 oligomers", "setting": "[6]", "value": "0.1 to 1.0", "unit": "µM"},
      {"measurement": "reduction of beta amyloid plaque burden", "setting": "[7]", "value": "30-40%"},
      {"measurement": "reduction of the amount of soluble beta amyloid", "setting": "[7]", "value": 43, "unit": "%"},
      {"measurement": "reduction of amyloid beta deposits induced by beta amyloid infusion", "setting": "[8]", "value": "about 80%"},
      {"measurement": "solubility in water", "setting": "[3]", "value": "insoluble in water"},
      {"measurement": "solubility in water (parent compound)", "setting": "[3]", "value": "about 0.004 mg/ml"},
      {"measurement": "inhibition of UGT activity in the conjugation of 1-naphthol", "setting": "UGT", "value": "moderate inhibition"},
      {"measurement": "Rhodamine-123 (R-123) efflux", "setting": "Pgp", "value": "inhibited"},
      {"measurement": "increase in immunosuppression of antigen-stimulated spleen cytotoxic T-lymphocyte proliferation", "setting": "[9]", "value": "six-fold increase"}
    ]}
  ]
}
